We go through ten molecules from PubChem BioAssay AID1259407 (Chemical Carcinogenesis Research Information System (CCRIS), 2018).

Calls of active or inactive are those of the source. The rule behind the calls is not given here.

The test system of the data set is CCRIS mutagenicity, Ames/micronucleus/aberration tests. In words: CCRIS mutagenicity studies. Conditions: Test System: AMES SALMONELLA TYPHIMURIUM
The mark [1] stands for this setting: Strain/Indicator: TA98, Metabolic Activation: NONE, Method: PREINCUBATION
Setting [2] is: Strain/Indicator: TA98, Metabolic Activation: NONE, Method: STANDARD PLATE.
[3] abbreviates: Strain/Indicator: TA100, Metabolic Activation: NONE, Method: PREINCUBATION
Where [4] appears, read: Strain/Indicator: TA100, Metabolic Activation: NONE, Method: STANDARD PLATE.
Where [5] appears, read: Strain/Indicator: TA102, Metabolic Activation: NONE, Method: STANDARD PLATE.
Where [6] appears, read: Strain/Indicator: TA1535, Metabolic Activation: NONE, Method: PREINCUBATION
[7] abbreviates: Strain/Indicator: TA1537, Metabolic Activation: NONE, Method: PREINCUBATION
Setting [8] is: Strain/Indicator: TA97, Metabolic Activation: NONE, Method: STANDARD PLATE.

For the molecule `O=C(N=c1sn(C(=O)c2cccc(Cl)c2)c2ccc([N+](=O)[O-])cc12)c1cccc(Cl)c1`, the mutagenic call (Strain/Indicator: TA100, Metabolic Activation: S-9, Method: STANDARD PLATE) is “active; positive”.

For `CC(C)=CCC/C(C)=C/C=O`, the mutagenic call reads like this: (Strain/Indicator: TA97A, Metabolic Activation: NONE, Method: STANDARD PLATE) “inactive; negative”; (Strain/Indicator: TA97A, Metabolic Activation: RAT LIVER S-9, AROCLOR 1254, Method: STANDARD PLATE) “inactive; negative”; (Strain/Indicator: TA98, Metabolic Activation: HAMSTER, LIVER, S-9, AROCLOR 1254 (10%), Method: PREINCUBATION) “inactive; negative”; under setting [1], “inactive; negative”; under setting [2], “inactive; negative”; (Strain/Indicator: TA98, Metabolic Activation: RAT LIVER S-9, AROCLOR 1254, Method: STANDARD PLATE) “inactive; negative”. Besides, the mutagenic call is “inactive; negative” (Strain/Indicator: TA98, Metabolic Activation: RAT, LIVER, S-9, AROCLOR 1254 (10%), Method: PREINCUBATION); “inactive; negative” (Strain/Indicator: TA100, Metabolic Activation: HAMSTER, LIVER, S-9, AROCLOR 1254 (10%), Method: PREINCUBATION); “inactive; negative” under setting [3]; “inactive; negative” under setting [4]; “inactive; negative” (Strain/Indicator: TA100, Metabolic Activation: RAT LIVER S-9, AROCLOR 1254, Method: STANDARD PLATE); “inactive; negative” (Strain/Indicator: TA100, Metabolic Activation: RAT, LIVER, S-9, AROCLOR 1254 (10%), Method: PREINCUBATION). For the same molecule, the mutagenic call under setting [5] is “inactive; negative”; the mutagenic call (Strain/Indicator: TA102, Metabolic Activation: RAT LIVER S-9, AROCLOR 1254, Method: STANDARD PLATE) is “inactive; negative”; the mutagenic call (Strain/Indicator: TA1535, Metabolic Activation: HAMSTER, LIVER, S-9, AROCLOR 1254 (10%), Method: PREINCUBATION) is “inactive; negative”; the mutagenic call under setting [6] was “inactive; negative”; the mutagenic call (Strain/Indicator: TA1535, Metabolic Activation: RAT, LIVER, S-9, AROCLOR 1254 (10%), Method: PREINCUBATION) was “inactive; negative”; the mutagenic call (Strain/Indicator: TA1537, Metabolic Activation: HAMSTER, LIVER, S-9, AROCLOR 1254 (10%), Method: PREINCUBATION) was “inactive; negative”. Further, the mutagenic call under setting [7] is “inactive; negative” and the mutagenic call (Strain/Indicator: TA1537, Metabolic Activation: RAT, LIVER, S-9, AROCLOR 1254 (10%), Method: PREINCUBATION) is “inactive; negative”.

As for `Nc1ccc(Nc2ccc([N+](=O)[O-])cc2)cc1`, the mutagenic call reads like this: (Strain/Indicator: TA98(NR), Metabolic Activation: NONE, Method: PREINCUBATION) “inactive; negative”; under setting [1], “active; positive”; (Strain/Indicator: TA98, Metabolic Activation: RAT, LIVER, S-9, AROCLOR 1254, Method: PREINCUBATION) “active; positive”.

For `O=C(O)COc1ccc(Cl)cc1`, the mutagenic call was “inactive; negative” under setting [8]; “inactive; negative” (Strain/Indicator: TA97, Metabolic Activation: RAT, LIVER, S-9, AROCLOR 1254, Method: STANDARD PLATE); “inactive; negative” under setting [2]; “inactive; negative” (Strain/Indicator: TA98, Metabolic Activation: RAT, LIVER, S-9, AROCLOR 1254, Method: STANDARD PLATE); “inactive; negative” under setting [4]; “inactive; negative” (Strain/Indicator: TA100, Metabolic Activation: RAT, LIVER, S-9, AROCLOR 1254, Method: STANDARD PLATE). In addition, the mutagenic call is “inactive; negative” under setting [5] and “inactive; negative” (Strain/Indicator: TA102, Metabolic Activation: RAT, LIVER, S-9, AROCLOR 1254, Method: STANDARD PLATE).

Take `O=C1OCC(CBr)=C1Br`: the mutagenic call under setting [4] was “active; positive”.

As for `O=[N+]([O-])c1ccc2ccc3nc4ccccc4c4ccc1c2c34`, the mutagenic call (Strain/Indicator: TA98(1,8-DNP6), Metabolic Activation: NONE) is “active; positive”; the mutagenic call (Strain/Indicator: TA98(NR), Metabolic Activation: NONE) was “active; positive”; the mutagenic call (Strain/Indicator: TA98, Metabolic Activation: NONE) was “active; positive”.

On to `N#Cc1ccc([N+](=O)[O-])cc1`, for which the mutagenic call was “inactive; negative” under setting [1]; “inactive; negative” (Strain/Indicator: TA98, Method: PREINCUBATION); “inactive; negative” under setting [3]; “inactive; negative” (Strain/Indicator: TA100, Method: PREINCUBATION); “inactive; negative” under setting [6]; “inactive; negative” (Strain/Indicator: TA1535, Method: PREINCUBATION). The mutagenic call is “inactive; negative” under setting [7]; “inactive; negative” (Strain/Indicator: TA1537, Method: PREINCUBATION); “inactive; negative” (Strain/Indicator: TA1538, Metabolic Activation: NONE, Method: PREINCUBATION); “inactive; negative” (Strain/Indicator: TA1538, Method: PREINCUBATION).

For `Cc1c(C)c2c3c(ccc2c2ccccc12)[C@@H](O)[C@H](O)[C@@H]1O[C@H]31`, the mutagenic call under setting [4] is “active; positive”.

For `COc1ccc(-c2nc(-c3ccccc3)c(-c3ccccc3)[nH]2)cc1`, the mutagenic call reads like this: under setting [2], “active; positive”; (Strain/Indicator: TA98, Metabolic Activation: RAT LIVER S-9, 3-METHYLCHOLANTHRENE, SODIUM PHENOBARBITAL, Method: STANDARD PLATE) “inactive; negative”; under setting [4], “active; positive”; (Strain/Indicator: TA100, Metabolic Activation: RAT LIVER S-9, 3-METHYLCHOLANTHRENE, SODIUM PHENOBARBITAL, Method: STANDARD PLATE) “inactive; negative”.

For `O=C1c2ccccc2C(=O)N1SC1CCCCC1`, the mutagenic call by setting is: under setting [8], “inactive; negative”; (Strain/Indicator: TA97, Metabolic Activation: RAT LIVER S-9, DELOR 103 (4% OR 10%), Method: STANDARD PLATE) “inactive; negative”; under setting [2], “inactive; negative”; (Strain/Indicator: TA98, Metabolic Activation: RAT LIVER S-9, DELOR 103 (4% OR 10%), Method: STANDARD PLATE) “inactive; negative”; under setting [4], “inactive; negative”; (Strain/Indicator: TA100, Metabolic Activation: RAT LIVER S-9, DELOR 103 (4% OR 10%), Method: STANDARD PLATE) “inactive; negative”. For the same molecule, the mutagenic call under setting [5] is “inactive; negative” and the mutagenic call (Strain/Indicator: TA102, Metabolic Activation: RAT LIVER S-9, DELOR 103 (4% OR 10%), Method: STANDARD PLATE) is “inactive; negative”.
